One may read the IC50 as the concentration needed to halve the response being measured.

This assay has as its target T1, kinase-domain human PKCι (Homo sapiens, UniProt P41743).
T1 construct: Recombinant, kinase-domain human PKCι is expressed and purified in-house; made in house
T1 sequence (P41743 254-522 limits assumed): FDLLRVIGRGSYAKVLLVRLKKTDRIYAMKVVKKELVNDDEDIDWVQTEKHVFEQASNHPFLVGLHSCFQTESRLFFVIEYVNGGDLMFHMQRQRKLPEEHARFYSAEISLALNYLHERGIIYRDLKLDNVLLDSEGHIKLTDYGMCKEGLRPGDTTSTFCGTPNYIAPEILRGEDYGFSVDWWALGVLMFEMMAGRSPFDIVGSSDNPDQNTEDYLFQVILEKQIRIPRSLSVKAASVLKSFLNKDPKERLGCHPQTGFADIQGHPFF
Put plainly: PKCι IC50 IMAP fluorescence polarisation assay, kinase-domain enzyme. The class given is biochemical. Conditions: kinase domain PKCi at 2 μM ATP; read-out: IC50 in IMAP assay against kinase domain PKCi (Activity). In general terms: Polarisation of emitted light reports the rotation of a fluorescent probe.

Turning to `Clc1ccccc1CN1CCN(c2nc(-c3ccncc3)nc3sc4c(c23)CCCC4)CC1` [compound 123, 4-[4-(2-Chloro-benzyl)-piperazin-1-yl]-2-pyridin-4-yl-5,6,7,8-tetrahydro-benzo[4,5]thieno[2,3-d]pyrimidine], the half-inhibitory concentration (IC50) lay in the range of 10 to 40 µM.

Regarding `Clc1cccc(CN2CCN(c3nc(-c4ccncc4)nc4sc5c(c34)CCCC5)CC2)c1` [compound 124, 4-[4-(3-Chloro-benzyl)-piperazin-1-yl]-2-pyridin-4-yl-5,6,7,8-tetrahydro-benzo[4,5]thieno[2,3-d]pyrimidine], the IC50 is 10 to 40 µM. The value for `CN1CCN(c2nc(-c3ccncc3)nc3sc4c(c23)CCCC4)CC1` [compound 125, 4-(4-Methyl-piperazin-1-yl)-2-pyridin-4-yl-5,6,7,8-tetrahydro-benzo[4,5]thieno[2,3-d]pyrimidine] was 1 to 10 µM; that for `Oc1cccc(CN2CCN(c3nc(-c4ccncc4)nc4sc5c(c34)CCCC5)CC2)c1` [compound 126, 3-[4-(2-Pyridin-4-yl-5,6,7,8-tetrahydro-benzo[4,5]thieno[2,3-d]pyrimidin-4-yl)-piperazin-1-ylmethyl]-phenol] was 10 to 40 µM; that for `Brc1cccc(CN2CCN(c3nc(-c4ccncc4)nc4sc5c(c34)CCCC5)CC2)c1` [compound 127, 4-[4-(3-Bromo-benzyl)-piperazin-1-yl]-2-pyridin-4-yl-5,6,7,8-tetrahydro-benzo[4,5]thieno[2,3-d]pyrimidine] was 10 to 40 µM. As for `Brc1ccc(CN2CCN(c3nc(-c4ccncc4)nc4sc5c(c34)CCCC5)CC2)cn1` [compound 128, 4-[4-(6-Bromo-pyridin-3-ylmethyl)-piperazin-1-yl]-2-pyridin-4-yl-5,6,7,8-tetrahydro-benzo[4,5]thieno[2,3-d]pyrimidine], the figure is 10 to 40 µM; as for `CCCCN1CCN(c2nc(-c3ccncc3)nc3sc4c(c23)CCCC4)CC1` [compound 129, 4-(4-Butyl-piperazin-1-yl)-2-pyridin-4-yl-5,6,7,8-tetrahydro-benzo[4,5]thieno[2,3-d]pyrimidine], 10 to 40 µM; as for `c1cncc(CN2CCN(c3nc(-c4ccncc4)nc4sc5c(c34)CCCC5)CC2)c1` [compound 130, 2-Pyridin-4-yl-4-(4-pyridin-3-ylmethyl-piperazin-1-yl)-5,6,7,8-tetrahydro-benzo[4,5]thieno[2,3-d]pyrimidine], 10 to 40 µM.

With `Brc1cnccc1CN1CCN(c2nc(-c3ccncc3)nc3sc4c(c23)CCCC4)CC1` [compound 131, 4-[4-(3-Bromo-pyridin-4-ylmethyl)-piperazin-1-yl]-2-pyridin-4-yl-5,6,7,8-tetrahydro-benzo[4,5]thieno[2,3-d]pyrimidine], the IC50 fell in the range of 10 to 40 µM.

`c1ccc(CCN2CCN(c3nc(-c4ccncc4)nc4sc5c(c34)CCCC5)CC2)cc1` [compound 132, 4-(4-Phenethyl-piperazin-1-yl)-2-pyridin-4-yl-5,6,7,8-tetrahydro-benzo[4,5]thieno[2,3-d]pyrimidine]: the IC50 lay within 10 to 40 µM. Turning to `CCCN1CCN(c2nc(-c3ccncc3)nc3sc4c(c23)CCCC4)CC1` [compound 133, 4-(4-Propyl-piperazin-1-yl)-2-pyridin-4-yl-5,6,7,8-tetrahydro-benzo[4,5]thieno[2,3-d]pyrimidine], the IC50 is 10 to 40 µM. Take `CC(C)CN1CCN(c2nc(-c3ccncc3)nc3sc4c(c23)CCCC4)CC1` [compound 134, 4-(4-Isobutyl-piperazin-1-yl)-2-pyridin-4-yl-5,6,7,8-tetrahydro-benzo[4,5]thieno[2,3-d]pyrimidine]: the IC50 lay in the range of 10 to 40 µM. On to `CN(C)CCOc1nc(-c2ccncc2)nc2sc3c(c12)CCCC3` [compound 135, dimethyl-[2-(2-pyridin-4-yl-5,6,7,8-tetrahydro-benzo[4,5]thieno[2,3-d]pyrimidin-4-yloxy)-ethyl]-amine], for which the IC50 is 1 to 10 µM. As for `NCCOc1nc(-c2ccncc2)nc2sc3c(c12)CCCC3` [compound 136], the figure is 0.1 to 1 µM; as for `CNCCOc1nc(-c2ccncc2)nc2sc3c(c12)CCCC3` [compound 137, Methyl-[2-(2-pyridin-4-yl-5,6,7,8-tetrahydro-benzo[4,5]thieno[2,3-d]pyrimidin-4-yloxy)-ethyl]-amine], 1 to 10 µM. The value for `CC(C)C[C@H](N)COc1nc(-c2ccncc2)nc2sc3c(c12)CCCC3` [compound 138, (S)-3-Methyl-1-(2-pyridin-4-yl-5,6,7,8-tetrahydro-benzo[4,5]thieno[2,3-d]pyrimidin-4-yloxymethyl)-butylamine] was 1 to 10 µM. The value for `c1cc(-c2nc(O[C@H]3CCNC3)c3c4c(sc3n2)CCCC4)ccn1` [compound 140, 2-Pyridin-4-yl-4-((S)-pyrrolidin-3-yloxy)-5,6,7,8-tetrahydro-benzo[4,5]thieno[2,3-d]pyrimidine] was 1 to 10 µM. Consider `c1cc(-c2nc(OC3CCCNC3)c3c4c(sc3n2)CCCC4)ccn1` (centres unmarked) [compound 141, 4-(Piperidin-3-yloxy)-2-pyridin-4-yl-5,6,7,8-tetrahydro-benzo[4,5]thieno[2,3-d]pyrimidine], for which the 50% inhibitory concentration (IC50) was in the range of 1 to 10 µM. As for `N[C@@H](COc1nc(-c2ccncc2)nc2sc3c(c12)CCCC3)Cc1ccccc1` [compound 142, (R)-2-Phenyl-1-(2-pyridin-4-yl-5,6,7,8-tetrahydro-benzo[4,5]thieno[2,3-d]pyrimidin-4-yloxymethyl)-ethylamine], the IC50 is 10 to 40 µM.

With `N[C@H](COc1nc(-c2ccncc2)nc2sc3c(c12)CCCC3)Cc1ccccc1` [compound 143, (S)-2-Phenyl-1-(2-pyridin-4-yl-5,6,7,8-tetrahydro-benzo[4,5]thieno[2,3-d]pyrimidin-4-yloxymethyl)-ethylamine], the IC50 was 0.1 to 1 µM.

As to `C[C@H](N)COc1nc(-c2ccncc2)nc2sc3c(c12)CCCC3` [compound 144, (S)-1-Methyl-2-(2-pyridin-4-yl-5,6,7,8-tetrahydro-benzo[4,5]thieno[2,3-d]pyrimidin-4-yloxy)-ethylamine], the IC50 lay within 0.1 to 1 µM. For the molecule `C[C@@H](N)COc1nc(-c2ccncc2)nc2sc3c(c12)CCCC3` [compound 145, (R)-1-Methyl-2-(2-pyridin-4-yl-5,6,7,8-tetrahydro-benzo[4,5]thieno[2,3-d]pyrimidin-4-yloxy)-ethylamine], the half-inhibitory concentration (IC50) was in the range of 1 to 10 µM.

In the case of `CC(C)C[C@@H](N)COc1nc(-c2ccncc2)nc2sc3c(c12)CCCC3` [compound 146, (R)-3-Methyl-1-(2-pyridin-4-yl-5,6,7,8-tetrahydro-benzo[4,5]thieno[2,3-d]pyrimidin-4-yloxymethyl)-butylamine], the half-inhibitory concentration (IC50) lay in the range of 1 to 10 µM.

Regarding `N[C@@H](COc1nc(-c2ccncc2)nc2sc3c(c12)CCCC3)c1ccccc1` [compound 147, (R)-1-Phenyl-2-(2-pyridin-4-yl-5,6,7,8-tetrahydro-benzo[4,5]thieno[2,3-d]pyrimidin-4-yloxy)-ethylamine], the concentration for half-maximal inhibition (IC50) fell in the range of 10 to 40 µM. Consider `CC(C)[C@@H](N)COc1nc(-c2ccncc2)nc2sc3c(c12)CCCC3` [compound 148, (R)-2-Methyl-1-(2-pyridin-4-yl-5,6,7,8-tetrahydro-benzo[4,5]thieno[2,3-d]pyrimidin-4-yloxymethyl)-propylamine], for which the IC50 is 10 to 40 µM. Take `CC[C@@H](N)COc1nc(-c2ccncc2)nc2sc3c(c12)CCCC3` [compound 149, (R)-1-(2-Pyridin-4-yl-5,6,7,8-tetrahydro-benzo[4,5]thieno[2,3-d]pyrimidin-4-yloxymethyl)-propylamine]: the 50% inhibitory concentration (IC50) was in the range of 1 to 10 µM.
